Common to all, as to type: cell-based
The test system of one experiment is NEAT1. The experiment in a line: NEAT1 expression (qRT-PCR) in treated prostate cancer cell lines. The settings on record: for NEAT1 expression: VCaP cells. The method, then: Cell culture and treatments: LnCaP and PC3 cells were grown in RPMI 1640 (Invitrogen) and supplemented with 10% fetal bovine serum (FBS) and 1% penicillin-streptomycin. RWPE1 cells were grown in Keratinocyte Serum Free Medium (K-SFM), Kit (Gibco, #17005-042). VCaP and DU145 cells were grown in DMEM (Invitrogen) and supplemented with 10% fetal bovine serum (FBS) with 1% penicillin streptomycin. NCI-H660 cells were grown in RPMI 1640 supplemented with 0.005 mg/ml insulin, 0.01 mg/ml transferrin, 30 nM sodium selenite, 10 nM hydrocortisone, 10 nM β-estradiol, 5% FBS, 1% penicillin-streptomycin and an extra 2 mM of L-glutamine (for a final concentration of 4 mM). For cell treatments in several experiments, the inventors used 10-100 nM β-estradiol (Sigma Aldrich), 10 μM Enzalutamide (Astellas), 10 μM bicalutamide (Sigma Aldrich), 1-10 nM R1881 (PE Biosystems), 10-100 nM 4-hydroxy tamoxifen (4OHT) (Sigma Aldrich), 1-10 μM ICI […] (Tocris Bioscience).
RNA isolation, cDNA synthesis and PCR experiments: Total RNA was isolated from frozen prostate tissue samples (for qPCR) and cell lines (for transcriptome sequencing and qPCR) using Trizol (Invitrogen) with DNase I digestion according to manufacturer's instructions. RNA integrity was verified on an Agilent Bioanalyzer 2100 (Agilent Technologies). cDNA was synthesized from total RNA using Superscript III (Invitrogen) and random primers (Invitrogen). Quantitative RT-PCR was performed using Power SYBR Green Mastermix (Applied Biosystems) on an Applied Biosystems 7900 Fast Real Time PCR machine. All primers were designed using Primer 3 and synthesized by Integrated DNA Technologies.
To test this hypothesis in vitro, the inventors evaluated the effect of anti-estrogens and anti-androgens on NEAT1 levels in prostate cancer cell lines.

The test system of a further experiment is NEAT1 promoter. Nature of the experiment: NEAT1 promoter luciferase reporter assay. The conditions noted are these: VCaP cells with ERα expression, -/+ E2 (10 nM) 24 hr. From the text:
Luciferase reporter assays: For ERE luciferase assays, VCaP cells were transiently transfected with the (ERE)3-5V40-luc reporter plasmid and/or ERα and/or AR as well as an internal control construct pRL harboring the renilla luciferase gene. VCaP cells were also transfected with empty vector or NEAT1 promoter (1+2) luciferase reporter constructs alone or with ERα as well as an internal control construct pRL harboring renilla luciferase gene. In order to determine the PSMA reporter activity, 293T cells and PC3 cells were co transfected with empty vector or PSMA luc and Renilla-luc reporter genes alone or with NEAT1, NEAT1+ERα, or NEAT1+AR.
[…] At 48 h cells were lysed with passive lysis buffer and luciferase activities were measured using the dual luciferase system (#E1910, Promega) and normalized with renilla luciferase activity.
The inventors inspected our ERα ChIP-seq data in VCaP ERα and NCI-H660 cells and identified two ERα binding sites on the NEAT1 promoter (FIG. 2d). […] ERα recruitment to specific regions of the NEAT1 promoter was independently validated by ERα ChIP in VCaP, VCaP ERα and NCI-H660 cells (FIG. 2e) using specific primers encompassing ERα binding sites in the NEAT1 promoter. […]
Background: Reporter assays use an easily measured gene product as a stand-in for the process of interest.

For experiment [1], the system named is VCaP cells. The experiment in a line: Colony-forming assay in NEAT1-overexpressing VCaP cells. The conditions noted are these: NEAT1-overexpressing VCaP cells with vs without E2 (10 nM), 21 days. The method, then: Soft agar assays were performed in both VCaP and VCaP NEAT1 cells. Colonies were monitored over a period of 21 days. […] These in vitro assays establish an oncogenic role for NEAT1.

Experiment [2] has as its system VCaP cells. The experiment in a line: Cell invasion assay (CHEMICON kit). The settings on record: E2 (10 nM), 48 hrs. The method, then:
Invasion assay: The CHEMICON cell invasion assay kit (EMD MIlipore) was used for determining the cell invasion. Cells were serum-starved for 48 hours and then seeded at a density of 2×10^5 cells/well in the upper well of the invasion chamber. 500 μl of phenol res free DMEM media supplemented with 8% charcoal stripped serum and 10 nM E2 was added to the lower chamber. After 48-hour incubation, the invaded cells were stained by dipping the inserts in the staining solution for 20 minutes. The stained cells were then dissolved in 10% acetic acid and transferred to a 96-well plate for colorimetric reading of OD at 560 nm.

Where [3] appears, read: ERα antagonist alone for longer periods.
Where [4] appears, read: ERα antagonist in combination with E2 (10 nM).

Take 4-hydroxy tamoxifen [4OHT]: the values for the NEAT1 expression entry in the experiment on NEAT1 (setting [3]) and in the experiment on NEAT1 (setting [4]) were “enhance NEAT1 expression” and “constrained”, respectively.

`C[C@]12CC[C@@H]3c4ccc(O)cc4C[C@@H](CCCCCCCCC[S+]([O-])CCCC(F)(F)C(F)(F)F)[C@H]3[C@@H]1CC[C@@H]2O` (some centres unmarked) [ICI 182,720]: the NEAT1 expression result with NEAT1 (setting [3]) is “enhance NEAT1 expression”; with NEAT1 (setting [4]), “constrained”.

Consider β-estradiol [E2], for which the NEAT1 promoter activity entry in the experiment on NEAT1 promoter is on record as “further enhanced”. The number of colonies entry in the experiment with VCaP cells [1] was “significantly increased the number of colonies”. For the same compound, the NEAT1 transcript levels result in the experiment on NEAT1 (panel of prostate cancer cell lines, ERα overexpression and E2 treatment (10 nM), different time points) was “upregulated NEAT1 transcript levels in a time-dependent manner”. For the same compound, in the experiment with VCaP cells [2], the invasive potential entry was “ligand-dependent modulation of invasive potential”.

The values above are taken from patent US10294476B2, “NEAT1 as a prognostic marker and therapeutic target for prostate cancer” (CORNELL UNIVERSITY, priority 2014, dated 2019).
